For four compounds, Activity results are on record in ChEMBL document CHEMBL4819042, “Aromatic and Aliphatic Apiuronides from the Bark of Cinnamomum cassia” (J Nat Prod, 2021).

The source made the active and inactive calls. No cut-off for these calls is given here.

In this assay the test system is Mus musculus. The experiment in a line: Analgesic activity against paclitaxel-induced cold allodynia in C57BL/6 mouse model at 10 mg/kg, po administered at day 14 and day 25 of post paclitaxel stimulation and measured after 1 hr. The class given is functional, organism-based.
With `COc1cc([C@H]2OC[C@H]3[C@@H]2CO[C@@H]3c2cc(OC)c(O)c(OC)c2)cc(OC)c1O`, the outcome was Active.
`CC(C)[C@@]1(O)CC2(O)[C@@]3(O)[C@]45O[C@](O)(C[C@@]2(C)[C@@]4(O)CC[C@H](C)[C@H]5O)[C@@]31C`: the result was Active.
Consider `CC1=C(C(C)CO[C@@H]2O[C@H](CO)[C@@H](O)[C@H](O)[C@H]2O)C[C@@]2(O)[C@@]3(C)CC(=O)O[C@@H]4[C@@H](C)CC[C@@]3(O)[C@@]4(O)[C@@]12O` (some centres undefined), for which the result was Active.
Regarding `COc1cc(O[C@@H]2O[C@H](CO[C@@H]3OC[C@](O)(CO)[C@H]3O)[C@@H](O)[C@H](O)[C@H]2O)cc(OC)c1OC`, the result was Active.
